Legend:
rat aortic rings = test: Rat aortic ring assay
Procedure: The aortic rings were prepared using a Furchgott procedure (described in Furchgott, R.F., "Role of Endothelium in Response of Vascular Smooth Muscle", Circ. Res. 53: 557-573, 1983) with changes in tension recorded. In all preparations, initial tension (1.5 grams) was produced with 30 mM KCl.

[1] = system: rat lung fibroblast cells; test: Nitric oxide: rat lung fibroblast cGMP reporter assay; assay type: cell-based; conditions: for cGMP: mean
Procedure: The assay is described in Ishii, I., Sheng, H., Warner, T.D., Förstermann, V. and Murad, F., Am. J. Physiol., 261 (Heart Circ. Physiol. 30); H598-H603, 1991 modified in that the nitric oxide synthase (NOS) is added directly to the cells. Rat lung fibroblast cells were grown to confluence on a 48-well tissue culture plate containing Earle's salts medium. The medium is removed and the cells washed twice with minimal essential medium buffered with Earle's salts. A nitric oxide (NO) generating system consisting of enzyme (NOS), nicotinamide adenine dinucleotide phosphate (NADPH), arginine and required cofactors, such as tetrahydrobiopterin and flavin adenine dinucleotide (FAD) is subsequently added to each well. In cases where the complex of Example 1 was added, addition occurred with the NO generating system. After five minutes of incubation, each reaction is terminated, cellular cGMP extracted and measured by radioimmunoassay.
The capacity of the rat lung fibroblast cells to respond to NO was confirmed by adding sodium nitroprusside (SNP), a compound which spontaneously degrades to NO and results in increased cGMP levels. Next, crude NOS (prepared from endotoxin-treated RAW 264.7 cells) was added to the rat lung fibroblast cells to determine their response to enzymatically generated NO. A dose-dependent increase in cGMP with increasing amounts of enzyme was obtained. Superoxide dismutase (SOD) addition augmented cellular cGMP levels.

conscious rats = test: Rat hemodynamic model (mean blood pressure, conscious rats); assay type: in vivo, male Sprague-Dawley rats
Procedure: Catheters were inserted into the femoral vein, femoral artery and bladder of male Sprague-Dawley rats (250-325 grams total body weight) anesthetized with ether. The rats were then placed in individual restraining cages and allowed to regain consciousness. Blood pressure was measured by a standard pressure transducer and physiograph. Increasing doses of the manganese(II) complex of Example 1 (prepared in an aqueous solution) were given as single bolus injections. The results of the tests can be found in Figure 1. The blood pressure values represent the mean arterial blood pressure from the mean values of 3 rats. […] Thus, the potentiation by the complex of Example 1 of the vasorelaxant effects of NO is consistent with the proposed mechanism of action as an SOD mimic.

[2] = biological target: T1, nitric oxide synthase (NOS) (Mus musculus, UniProt P29477); test: NOS activity measured by citrulline production; assay type: biochemical
T1 construct: crude NOS (prepared from endotoxin-treated RAW 264.7 cells); endogenous in cells; host or cells: endotoxin-treated RAW 264.7 cells (crude enzyme preparation)
T1 sequence (P29477 1-1144): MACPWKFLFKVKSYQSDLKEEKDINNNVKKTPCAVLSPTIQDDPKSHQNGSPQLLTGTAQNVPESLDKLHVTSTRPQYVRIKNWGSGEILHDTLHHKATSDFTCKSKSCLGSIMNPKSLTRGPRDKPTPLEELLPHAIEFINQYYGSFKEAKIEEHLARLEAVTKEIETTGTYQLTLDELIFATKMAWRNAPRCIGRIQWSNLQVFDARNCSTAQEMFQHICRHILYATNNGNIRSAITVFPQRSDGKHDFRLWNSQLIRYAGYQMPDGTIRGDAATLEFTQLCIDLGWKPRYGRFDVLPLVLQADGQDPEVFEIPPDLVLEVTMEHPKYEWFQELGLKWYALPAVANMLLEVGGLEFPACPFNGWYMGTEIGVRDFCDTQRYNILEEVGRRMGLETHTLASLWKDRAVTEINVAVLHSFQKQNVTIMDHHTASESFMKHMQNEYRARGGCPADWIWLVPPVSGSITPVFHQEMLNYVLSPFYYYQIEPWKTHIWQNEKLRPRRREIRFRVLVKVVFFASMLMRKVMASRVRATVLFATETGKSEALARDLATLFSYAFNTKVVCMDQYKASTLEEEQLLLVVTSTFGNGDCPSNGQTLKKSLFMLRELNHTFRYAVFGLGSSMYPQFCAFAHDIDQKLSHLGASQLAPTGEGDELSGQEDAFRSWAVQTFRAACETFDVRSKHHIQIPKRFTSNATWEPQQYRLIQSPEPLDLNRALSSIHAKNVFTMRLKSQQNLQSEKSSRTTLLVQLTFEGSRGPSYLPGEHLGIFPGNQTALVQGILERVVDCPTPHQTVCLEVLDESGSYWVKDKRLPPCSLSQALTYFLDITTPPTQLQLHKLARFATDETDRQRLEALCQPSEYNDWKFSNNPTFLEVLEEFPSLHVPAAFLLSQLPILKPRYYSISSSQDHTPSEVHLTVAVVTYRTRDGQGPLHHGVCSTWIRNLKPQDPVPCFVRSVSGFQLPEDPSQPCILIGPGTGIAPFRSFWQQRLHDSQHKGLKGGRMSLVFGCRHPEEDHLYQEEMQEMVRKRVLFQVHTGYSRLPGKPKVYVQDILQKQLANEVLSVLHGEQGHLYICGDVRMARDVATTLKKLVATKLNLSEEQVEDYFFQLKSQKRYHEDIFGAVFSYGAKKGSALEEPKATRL

[3] = system: human aortic endothelial cells (HAE cells)
From the text: (§1) Human peripheral blood neutrophils were isolated from fresh venous blood of healthy volunteers. EDTA anticoagulated blood was separated using a single step density centrifugation (Polymorphprep; Nycomed Pharma, Oslo, Norway) followed by several washes in Hank's balanced salt solution supplemented with 0.5% BSA (Bovine Serum Albumin) (HBSSB) and the hypertonic lysis of erythrocytes. Neutrophils were counted via Coulter electronic particle counter and resuspended in HBSSB supplemented with 25% Endothelial Basal Medium (EBM), (Clonetics Corporation, San Diego, CA) at a concentration of 5 x 10^6 polymorphonuclear leukocytes (PMN)/ml.
(§2) The cytotoxic effects of stimulated neutrophils on endothelial cells were determined using a ^51Cr-release assay as previously described (Moldow, C.F., and Jacob, H.S. (1984) Methods Enzymol. 105, 378-385). Confluent monolayers of human aortic endothelial cells (HAE cells; Clonetics) grown in 96-well culture plates were prelabeled with 1 µCi/well ^51Cr (Na2 ^51Cr2O4, New England Nuclear, Boston, MA). The cells were incubated for 18 h at 37°C, then cytokine-activated with 10 Units/well human recombinant tumor necrosis factor-a (hrTNF-α; Monsanto Company, St. Louis, MO) for 4 h at 37°C. The cells were washed twice to remove unincorporated radioactivity with Hank's balanced salt solution supplemented with 0.5% BSA. To assess inhibition of PMN-mediated cytotoxicity, manganese(II) complexes at various doses (0-300 µM) were added to five replicate wells/dose of HAE cells immediately prior to the addition of PMN. Suspensions of PMN in HBSSB supplemented with 25% Endothelial Basal Medium were added to the wells at a neutrophil to endothelial cell ratio of 50:1. The PMN were allowed to adhere for 15 minutes at 37°C, primed with 125 Units/well hrTNF-α (Berkow, R.L., Wang, D., Larrick, J.W., Dodson, R.W., and Howard, T.H. (1987) J. Immunol. 139, 3783-3791; Varani, J.; Bendelow, M. J. Sealey, D. E.; Kunkel, S. L.; Gannon, D. E.; Ryan, U.S.; and Ward, P.A. (1987) Lab. Invest., 59, 292-295) for 10 minutes, and stimulated with human recombinant complement component C5a (Sigma Chemical, St. Louis, MO). […] After an additional incubation of 4 hours at 37°C, 200 µl of the 250 µl reaction volume (soluble fraction) was removed to a tube for counting. The cells were washed twice with 200 µl HBSSB (nonadherent fraction) and the washes pooled with the soluble fraction. The adherent fraction was collected by lysing the HAE cells with 200 µl 1N NaOH for 30 minutes and removing to separate tubes. Both fractions were analyzed by gamma scintillation spectrometry. The percentage cytotoxicity was calculated by the following formula: % Cytotoxicity =(cpm (soluble + nonadherent fractions))/(cpm (soluble + nonadherent + adherent fractions))x 100 [formula] Specific cytotoxicity reflects the difference between ^51Cr-release induced by stimulated PMN and unstimulated PMN. The IC50 values for the manganese(II) complexes for protection against neutrophil-mediated cytotoxicity were determined from a computer-driven logistic regression equation from a plot of % specific cytotoxicity versus the concentration of the manganese(II) complex.

[4] = system: colonic myeloperoxidase activity; test: Mouse acetic acid-induced colitis model (colonic myeloperoxidase); assay type: in vivo; conditions: 30 mg/kg dose, intracolonic, 30 minutes before acetic acid, tissue after 24 hours
Procedure: Mouse colitis model. […] Mice were lightly anesthetized. A solution of 3% (v/v) aqueous acetic acid was instilled intracolonically via a flexible polyethylene tube. After 24 hours, the animals were killed and colonic tissue samples were obtained. Tissue samples were assessed biochemically for the neutrophil marker enzyme, myeloperoxidase (MPO). The colonic tissue samples were minced, homogenized in detergent, and sonicated. After centrifugation, enzyme activities were assayed spectrophotometrically by determining the decomposition of peroxide using o-dianisidine as the hydrogen donor. Data was obtained as the absorbance (460 nm) at 20 minutes. Test agents were given intracolonically at a dose of 30 mg/kg body weight 30 minutes before acetic acid instillation as a sonicated suspension in 0.5% aqueous methyl cellulose. Vehicle was given to appropriate acetic acid control animals. Normal tissue was obtained from control animals which received only vehicle. Colonic myeloperoxidase activities were determined as units/g wet weight of tissue. Reduction of colonic myeloperoxidase activity by test agents in acetic acid-treated mice is expressed as % inhibition (Table 2). Colonic myeloperoxidase activity correlated with the degree of tissue inflammation as assessed by visual and histological analysis.

[5] = system: human aortic endothelial cells (HAE cells); test: Neutrophil-mediated cytotoxicity assay (51Cr-release); conditions: 50% inhibition of specific cytotoxicity; human neutrophil-mediated killing of human aortic endothelial cells
From the text: as §1, §2

C1CNCCNCCNCCNCCN1.[Cl-].[Cl-].[Mn+2] [Example 1, [Manganese(II)dichloro(1,4,7,10,13-Pentaazacyclopentadecane)]]
effect on the relaxation response to acetylcholine, in words (rat aortic rings; complex 0.5 and 5.0 micromolar, acetylcholine 0.1 and 1.0 micromolar): additive effect | effect on the relaxation response to sodium nitroprusside, in words (rat aortic rings; complex 0.5 and 5.0 micromolar, sodium nitroprusside 0.001 to 10 micromolar): additive effect | maximum relaxation (rat aortic rings; endothelium and dose-dependent from 0.05 to 300 micromolar, 30 mM KCl): 45% | augmentation of cellular cGMP levels (rat aortic rings; rat aortic rings, 5 micromolar for 1 min.): 2.5 fold | cGMP ([1]; NOS + complex 0.0001mM): 19.3 fmol/well/10 | cGMP ([1]; NOS + complex 0.001mM): 21.7 fmol/well/10 | cGMP ([1]; NOS + complex 0.01mM): 43.7 fmol/well/10 | cGMP ([1]; NOS + complex 0.10mM): 54.7 fmol/well/10 | cGMP ([1]; NOS + complex 1.0mM): 60.3 fmol/well/10 | cGMP ([1]; complex alone, 1mM, no NOS): 11.7 fmol/well/10 | basal levels of cGMP, in words ([1]; complex alone, 1 millimolar): not increased | cGMP levels, in words ([1]; with NO generating system, 1 micromolar to 1 millimolar): dose-dependent increase in cGMP levels | effect on mean blood pressure, in words (conscious rats; increasing doses as single bolus injections, aqueous solution, data in Figure 1): blood pressure drop | duration of the blood pressure drop (conscious rats; single bolus injections): 3 to 5 min | NOS activity as measured by citrulline production [2]: does not increase NOS activity | protection against human neutrophil-mediated cytotoxicity, in words [3]: protective against human neutrophil-mediated cytotoxicity | % Inhibition of Colonic Myeloperoxidase Activity [4]: 69% | IC50 [5]: 25 µM

Reference: patent EP0598753B1, “MANGANESE COMPLEXES OF NITROGEN-CONTAINING MACROCYCLIC LIGANDS EFFECTIVE AS CATALYSTS FOR DISMUTATING SUPEROXIDE” (MONSANTO COMPANY, priority 1991, dated 1993)
